The structures appear in SMILES notation. Peptide text beside a SMILES is read from it.

This assay concerns Ragulator-Rag complex. As to the kind of experiment: Co-immunoprecipitation of Ragulator, Rag GTPases and mTOR/Raptor in HEK293T cells. The assay is classed as cell-based. The settings on record: 100 μM GPN 1 h. Here is the method:
(A) Analysis of mTOR activity in TSC2-deleted (TSC2−/−) and wildtype (TSC2WT) HeLa cells treated with 100 μM GPN in full medium (Full) or starved in EBSS for 1 h. mTOR activity was monitored by immunoblotting analysis of S6K1 (T389) phosphorylation (phosphorylated S6K (p-T389) relative to total S6K). Ctrl, control (untreated cells). (B) Co-immunoprecipitation analysis of changes in interactions between Ragulator and Rag GTPases following treatment with GPN. HEK293T cells stably expressing FLAG-metap2 (control) or FLAG-p14 were treated with 100 μM GPN in full medium for 1 h. Cell lysates were immunoprecipitated (IP) with anti-FLAG antibody and immunoblotted for endogenous RagA or RagC. […] (D) Analysis of mTOR activity in HEK293T cells or HEK293T cells stably expressing constitutively active RagB GTPase (RagBQ99L) treated with 100 μM GPN in full medium or starved in EBSS for 1 h. mTOR activity was monitored as in A. Data, means±SEM, (n=3), † not significant, **p<0.01, ANOVA. […] (F) Quantification by HC of overlaps between mTOR and LAMP2 (representative images shown in FIG. S2C) in HEK293T cells and HEK293T cells stably expressing constitutively active RagB GTPase (RagBQ99L) treated with 100 μM GPN in full medium for 1 h. Data, means±SEM, n≥3 independent experiments (500 primary objects counted per well; ≥5 wells/sample per each experiment); † p≥0.05, *p<0.05, ANOVA. […]

In the case of `NCC(=O)N[C@@H](Cc1ccccc1)C(=O)Nc1ccc2ccccc2c1` [GPN, glycyl-L-phenylalanine 2-naphththylamide] (HELM PEPTIDE1{G.F.[c1ccc2cc(N[*:1])ccc2c1]}$$$$V2.0), the “interactions between Ragulator (p14 and p18) and RagA/RagC in co-IPs” value is on record as “enhanced interactions”; the “mTOR and Raptor levels in complexes with RagB or RagA” value was “diminished mTOR and Raptor levels”.

Source of the values: patent publication US20210069295A1, “GALECTINS CONTROL MTOR IN RESPONSE TO ENDOMEMBRANE DAMAGE AND PROVIDE A MECHANISM AND TARGET FOR THE TREATMENT OF AUTOPHAGY-RELATED DISEASES” (STC. UNM, priority 2017, published 2021).
